Assay [1] has as its target JAK1 (recombinant purified GST-tagged catalytic domain) (Homo sapiens (Human), UniProt P23458). The experiment in a line: Jak Biochemical HTRF Assay (JAK1). Particulars: [ATP] 31.8 μM. The essentials: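 HTRF kinase format: compounds pre-equilibrated with recombinant GST-tagged JAK1 or JAK2 catalytic domain, then ATP started a 120 min room-temperature reaction on a common peptide substrate. Phosphopeptide detected via Eu-pY20/streptavidin-Dylight 650 after EDTA quench; percent inhibition versus log concentration fitted (4-parameter) to give IC50.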
On the technique in general: Time-resolved FRET reads energy transfer from a long-lived donor to a nearby acceptor.

Assay [2] addresses JAK2 (recombinant purified GST-tagged catalytic domain) (Homo sapiens (Human), UniProt O60674). The experiment in a line: Jak Biochemical HTRF Assay (JAK2). The conditions noted are these: [ATP] 8.5 μM. Here is the method:
Jak Biochemical HTRF Assay Protocol
The ability of compounds to inhibit the activity of JAK1, JAK2, JAK3, and Tyk2 was measured using a recombinant purified GST-tagged catalytic domain for each enzyme (Invitrogen JAK1 #M4290, JAK2 #M4290, JAK3 #M4290, Tyk2 #M4290) in an HTRF format biochemical assay. […] The basic assay protocol is as follows: First, 250 nL of diluted compounds in DMSO were dispensed into the wells of a dry 384-well Black plate (Greiner #781076) using a Labcyte Echo 555 acoustic dispenser. Subsequent reagent additions employed an Agilent Bravo. […] After equilibration, 2 μL of 10×ATP in 1× assay buffer was added to initiate the kinase reaction and the plates were shaken and then incubated at room temperature for 120 minutes. […] Plates were shaken and centrifuged and then incubated 60 minutes at room temperature and then read on a Perkin Elmer Envision (λex=337 nm, λem=665 and 615 nm, TRF delay time=20 μs). HTRF signal=10,000*665 nm reading/615 nm reading. After normalization to untreated controls, the percent inhibition of the HTRF signal at each compound concentration was calculated. The plot of percent inhibition versus the log of compound concentration was fit with a 4-parameter dose response equation to calculate IC50 values.
Final reaction conditions were:
Examples of the instant invention were evaluated in JAK1 and JAK2 in vitro binding assays as described above.

This passage reports IC50 results from US9957264B2 (Merck Sharp & Dohme Corp., priority 2013, dated 2018).

Structures are written as SMILES.

Sequence of JAK2 (recombinant purified GST-tagged catalytic domain) (O60674 849-1124): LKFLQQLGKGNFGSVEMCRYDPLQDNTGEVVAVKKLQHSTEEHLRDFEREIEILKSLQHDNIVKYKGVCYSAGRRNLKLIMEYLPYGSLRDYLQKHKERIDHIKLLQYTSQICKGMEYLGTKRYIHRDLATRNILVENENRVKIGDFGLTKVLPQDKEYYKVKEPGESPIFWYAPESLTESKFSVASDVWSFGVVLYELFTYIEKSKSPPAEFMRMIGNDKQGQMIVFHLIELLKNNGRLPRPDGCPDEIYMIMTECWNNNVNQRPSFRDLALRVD
Sequence of JAK1 (recombinant purified GST-tagged catalytic domain) (P23458 875-1153): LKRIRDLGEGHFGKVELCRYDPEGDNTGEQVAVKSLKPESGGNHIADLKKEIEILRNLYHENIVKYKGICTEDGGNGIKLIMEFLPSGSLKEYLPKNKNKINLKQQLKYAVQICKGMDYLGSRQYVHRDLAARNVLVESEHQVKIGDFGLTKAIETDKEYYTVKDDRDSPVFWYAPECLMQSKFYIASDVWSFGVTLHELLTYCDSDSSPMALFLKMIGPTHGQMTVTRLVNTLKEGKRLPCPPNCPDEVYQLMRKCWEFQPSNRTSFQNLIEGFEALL

For `CC(C)(C)OC(=O)N1CC(CC#N)(n2nc(Nc3ccccc3)c3c(=O)[nH]ccc32)C1` [Example 1-1, tert-butyl 3-(cyanomethyl)-3-(4-oxo-3-(phenylamino)-4,5-dihydro-1H-pyrazolo[4,3-c]pyridin-1-yl)azetidine-1-carboxylate], the IC50 was 2.23 nM in assay [1] and 25 nM in assay [2].

Consider `CN(C(C)(C)C(=O)OC(C)(C)C)S(=O)(=O)c1ccc(Nc2nn(C3(CC#N)CCCC3)c3cc[nH]c(=O)c23)cc1` [Example 5-137, tert-butyl 2-(4-((1-(1-(cyanomethyl)cyclopentyl)-4-oxo-4,5-dihydro-1H-pyrazolo[4,3-c]pyridin-3-yl)amino)-N-methylphenylsulfonamido)-2-methylpropanoate], for which the IC50 in assay [1] is 1.9 nM; in assay [2], 5.85 nM.

With `CC(C)(C)OC(=O)N1CCC(CC#N)(n2nc(Nc3ccc4c(c3)CCC4=O)c3c(=O)[nH]ccc32)CC1` [Example 5-12, tert-butyl 4-(cyanomethyl)-4-(4-oxo-3-((1-oxo-2,3-dihydro-1H-inden-5-yl)amino)-4,5-dihydro-1H-pyrazolo[4,3-c]pyridin-1-yl)piperidine-1-carboxylate], the figures for the IC50 in assay [1] and in assay [2] were 0.12 nM and 0.61 nM, respectively.

Turning to `CC(C)(C)N1Cc2cc(Nc3nn([C@@]4(CC#N)CCOC4)c4cc[nH]c(=O)c34)ccc2S1(=O)=O` (single isomer, unassigned) [Example 5-247, (S or R)-2-(3-(3-((2-(tert-butyl)-1,1-dioxido-2,3-dihydrobenzo[d]isothiazol-5-yl)amino)-4-oxo-4,5-dihydro-1H-pyrazolo[4,3-c]pyridin-1-yl)tetrahydrofuran-3-yl)acetonitrile], the IC50 in assay [1] was determined as 0.11 nM; in assay [2], 2.24 nM.

In the case of `COC(=O)N1CCC(CC#N)(n2nc(Nc3ccc(C(C)(O)C(F)(F)F)cc3)c3c(=O)[nH]ccc32)CC1` (single isomer, unassigned) [Example 5-141, (R or S)-methyl 4-(cyanomethyl)-4-(4-oxo-3-((4-(1,1,1-trifluoro-2-hydroxypropan-2-yl)phenyl)amino)-4,5-dihydro-1H-pyrazolo[4,3-c]pyridin-1-yl)piperidine-1-carboxylate], the IC50 in assay [1] worked out at 0.18 nM; in assay [2], 0.43 nM.

`CC(C)(C)OC(=O)CN1Cc2cc(Nc3nn([C@]4(CC#N)CCCOC4)c4cc[nH]c(=O)c34)ccc2S1(=O)=O` [Example 5-185, tert-butyl [5-({1-[(3S)-3-(cyanomethyl)tetrahydro-2H-pyran-3-yl]-4-oxo-4,5-dihydro-1H-pyrazolo[4,3-c]pyridin-3-yl}amino)-1,1-dioxido-1,2-benzisothiazol-2(3H)-yl]acetate]: the IC50 is 0.08 nM in assay [1] and 1.5 nM in assay [2].

Regarding `CCC(C)(C)S(=O)(=O)c1ccc(Nc2nn([C@]3(CC#N)CCCOC3)c3cc[nH]c(=O)c23)cc1` [Example 5-196, {(3S)-3-[3-({4-[(1,1-dimethylpropyl)sulfonyl]phenyl}amino)-4-oxo-4,5-dihydro-1H-pyrazolo[4,3-c]pyridin-1-yl]tetrahydro-2H-pyran-3-yl}acetonitrile], the results for the IC50 in assay [1] and in assay [2] were 0.15 nM and 0.33 nM, respectively.

Regarding `CN(C)S(=O)(=O)c1ccc(Nc2nn([C@]3(CC#N)COCC[C@@H]3F)c3cc[nH]c(=O)c23)cc1` (single isomer, unassigned) [Example 5-180, 4-({1-[(3R,4S or 3S,4R)-3-(cyanomethyl)-4-fluorotetrahydro-2H-pyran-3-yl]-4-oxo-4,5-dihydro-1H-pyrazolo[4,3-c]pyridin-3-yl}amino)-N,N-dimethylbenzene-sulfonamide], the results for the IC50 in assay [1] and in assay [2] were 0.84 nM and 1.84 nM, respectively.

Turning to `CC(C)(C)OC(=O)N1CCC(CC#N)(n2nc(Nc3ccc(C(F)(F)F)cc3)c3c(=O)[nH]ccc32)CC1` [Example 5-8, tert-butyl 4-(cyanomethyl)-4-(4-oxo-3-{[4-(trifluoromethyl)phenyl]amino}-4,5-dihydro-1H-pyrazolo [4,3-c]pyridin-1-yl) piperidine-1-carboxylate], the IC50 in assay [1] worked out at 1.96 nM; in assay [2], 20 nM.

Take `CN(C)S(=O)(=O)c1ccc(Nc2nn(C3(CC#N)CCN(C(=O)OCC(C)(C)C)CC3)c3cc[nH]c(=O)c23)cc1` [Example 10-4, neopentyl 4-(cyanomethyl)-4-(3-((4-(N,N-dimethylsulfamoyl)phenyl)amino)-4-oxo-4,5-dihydro-1H-pyrazolo[4,3-c]pyridin-1-yl)piperidine-1-carboxylate]: the IC50 in assay [1] was 0.45 nM; in assay [2] it was 3.08 nM.

For the compound `Cc1cc(Nc2nn([C@@]3(CC#N)CCCC[C@H]3F)c3cc[nH]c(=O)c23)ccc1C(=O)N1CCSCC1` [Example 5-154, 2-((1R,2R)-2-fluoro-1-(3-((3-methyl-4-(thiomorpholine-4-carbonyl)phenyl)amino)-4-oxo-4,5-dihydro-1H-pyrazolo[4,3-c]pyridin-1-yl)cyclohexyl)acetonitrile], the values for the IC50 in assay [1] and in assay [2] were 0.09 nM and 0.08 nM, respectively.

In the case of `N#CC[C@]1(n2nc(Nc3ccc(Cl)c(F)c3)c3c(=O)[nH]ccc32)CC[C@@H](Nc2ccccc2)CC1` [Example 18-25, Cis 2-(1-(3-((4-chloro-3-fluorophenyl)amino)-4-oxo-4,5-dihydro-1H-pyrazolo[4,3-c]pyridin-1-yl)-4-(phenylamino)cyclohexyl)acetonitrile], the results for the 50% inhibitory concentration (IC50) in assay [1] and in assay [2] were 70.2 nM and greater than 1500 nM, respectively.

Regarding `CN(C)S(=O)(=O)c1ccc(Nc2nn(C3(CC#N)CCCC3)c3cc[nH]c(=O)c23)cc1` [Example 5-123], the IC50 in assay [1] was determined as 0.23 nM; in assay [2] it was 0.46 nM.

On to `N#CC[C@@]1(n2nc(Nc3ccc(S(=O)(=O)C4CCCC4)cc3)c3c(=O)[nH]ccc32)CCCOC1` [Example 5-191, [(3S)-3-(3-{[4-(cyclopentylsulfonyl)phenyl]amino}-4-oxo-4,5-dihydro-1H-pyrazolo[4,3-c]pyridin-1-yl)tetrahydro-2H-pyran-3-yl]acetonitrile], for which the results for the half-maximal inhibitory concentration (IC50) in assay [1] and in assay [2] were 0.16 nM and 0.52 nM, respectively.

Turning to `CC(C)(C)OC(=O)[C@@H]1CC[C@](CC#N)(n2nc(Nc3ccc(S(C)(=O)=O)cc3)c3c(=O)[nH]ccc32)CO1` (racemic) [Example 5-35, (2R,5S and 2S,5R)-tert-butyl 5-(cyanomethyl)-5-(3-((4-(methylsulfonyl)phenyl)amino)-4-oxo-4,5-dihydro-1H-pyrazolo [4,3-c]pyridin-1-yl) tetrahydro-2H-pyran-2-carboxylate], the half-inhibitory concentration (IC50) in assay [1] came out at 3.43 nM; in assay [2], 29.3 nM.

As to `CC(C)S(=O)(=O)c1ccc(Nc2nn([C@@]3(CC#N)CCCC[C@H]3F)c3cc[nH]c(=O)c23)cc1` [Example 5-87, {(1R,2R)-2-fluoro-1-[3-({4-[(1-methylethyl)sulfonyl]phenyl}amino)-4-oxo-4,5-dihydro-1H-pyrazolo[4,3-c]pyridin-1-yl]cyclohexyl}acetonitrile], the values for the IC50 in assay [1] and in assay [2] were 0.04 nM and 0.05 nM, respectively.

Consider `CN(C)c1ccc2cc(Nc3nn([C@]4(CC#N)CC[C@@H](C(=O)OC(C)(C)C)OC4)c4cc[nH]c(=O)c34)ccc2n1` [Example 5-222, (2S,5S)-tert-butyl 5-(cyanomethyl)-5-(3-((2-(dimethylamino)quinolin-6-yl)amino)-4-oxo-4,5-dihydro-1H-pyrazolo[4,3-c]pyridin-1-yl)tetrahydro-2H-pyran-2-carboxylate], for which the IC50 in assay [1] came out at 0.13 nM; in assay [2], 0.64 nM.

One may read the IC50 as the concentration that gives 50% inhibition.
